Experimental data published in PubChem BioAssay AID1745844 (Carcinogenic Potency Database (CPDB), 2022).

Tested on: rodent lifetime carcinogenesis bioassay, tumor incidence TD50
Assay: chronic cancer bioassays in animals – CPDB, compiled studies (AID 1745844)
Details: rat, strain Wistar, in feed

O=P(O)(OCC(Br)CBr)OCC(Br)CBr (configuration not stated)
TD50 (females, site: esophagus, lesion: squamous-cell papilloma, dosed 78 weeks, study length 78 weeks): 107 mg/kg/day | TD50 (females, site: esophagus, lesion: squamous-cell papilloma, dosed 96 weeks, study length 101 weeks): 394 mg/kg/day | TD50 (females, site: forestomach, lesion: several types, types named in the paper, dosed 78 weeks, study length 78 weeks): 19.6 mg/kg/day | TD50 (females, site: forestomach, lesion: several types, types named in the paper, dosed 96 weeks, study length 101 weeks): 40 mg/kg/day | TD50 (females, site: forestomach, lesion: squamous-cell carcinoma, dosed 78 weeks, study length 78 weeks): 171 mg/kg/day | TD50 (females, site: forestomach, lesion: squamous-cell carcinoma, dosed 96 weeks, study length 101 weeks): 301 mg/kg/day | TD50 (females, site: forestomach, lesion: squamous-cell papilloma, dosed 52 weeks, study length 52 weeks): 47.6 mg/kg/day | TD50 (females, site: forestomach, lesion: squamous-cell papilloma, dosed 78 weeks, study length 78 weeks): 34.5 mg/kg/day | TD50 (females, site: forestomach, lesion: squamous-cell papilloma, dosed 96 weeks, study length 101 weeks): 60.3 mg/kg/day | TD50 (females, site: kidney, lesion: renal-cell adenoma, dosed 96 weeks, study length 101 weeks): 1250 mg/kg/day | TD50 (females, site: kidney, lesion: renal-cell carcinoma, dosed 96 weeks, study length 101 weeks): 1250 mg/kg/day | TD50 (females, site: kidney, lesion: several types, types named in the paper, dosed 96 weeks, study length 101 weeks): 608 mg/kg/day | TD50 (females, site: liver, lesion: hepatocellular adenoma, dosed 52 weeks, study length 52 weeks): 33.2 mg/kg/day | TD50 (females, site: liver, lesion: hepatocellular adenoma, dosed 78 weeks, study length 78 weeks): 20.6 mg/kg/day | TD50 (females, site: liver, lesion: hepatocellular carcinoma, dosed 52 weeks, study length 52 weeks): 35.1 mg/kg/day | TD50 (females, site: liver, lesion: hepatocellular carcinoma, dosed 78 weeks, study length 78 weeks): 20.1 mg/kg/day | TD50 (females, site: liver, lesion: hepatocellular carcinoma, dosed 96 weeks, study length 101 weeks): 37.1 mg/kg/day | TD50 (females, site: liver, lesion: several types, types named in the paper, dosed 52 weeks, study length 52 weeks): 11.8 mg/kg/day | TD50 (females, site: liver, lesion: several types, types named in the paper, dosed 78 weeks, study length 78 weeks): 11.9 mg/kg/day | TD50 (females, site: liver, lesion: several types, types named in the paper, dosed 96 weeks, study length 101 weeks): 27.8 mg/kg/day | TD50 (females, site: small intestine, lesion: adenocarcinoma, dosed 78 weeks, study length 78 weeks): 107 mg/kg/day | TD50 (females, site: small intestine, lesion: adenocarcinoma, dosed 96 weeks, study length 101 weeks): 179 mg/kg/day | TD50 (females, site: tongue, lesion: several types, types named in the paper, dosed 96 weeks, study length 101 weeks): 301 mg/kg/day | TD50 (females, site: tongue, lesion: squamous-cell papilloma, dosed 78 weeks, study length 78 weeks): 107 mg/kg/day | TD50 (females, site: tongue, lesion: squamous-cell papilloma, dosed 96 weeks, study length 101 weeks): 403 mg/kg/day | TD50 (males, site: esophagus, lesion: several types, types named in the paper, dosed 90 weeks, study length 102 weeks): 45.1 mg/kg/day | TD50 (males, site: esophagus, lesion: squamous-cell papilloma, dosed 78 weeks, study length 78 weeks): 16.5 mg/kg/day | TD50 (males, site: esophagus, lesion: squamous-cell papilloma, dosed 90 weeks, study length 102 weeks): 62.1 mg/kg/day | TD50 (males, site: forestomach, lesion: several types, types named in the paper, dosed 52 weeks, study length 52 weeks): 38.1 mg/kg/day | TD50 (males, site: forestomach, lesion: several types, types named in the paper, dosed 90 weeks, study length 102 weeks): 37.8 mg/kg/day | TD50 (males, site: forestomach, lesion: squamous-cell carcinoma, dosed 52 weeks, study length 52 weeks): 129 mg/kg/day | TD50 (males, site: forestomach, lesion: squamous-cell carcinoma, dosed 90 weeks, study length 102 weeks): 979 mg/kg/day | TD50 (males, site: forestomach, lesion: squamous-cell papilloma, dosed 52 weeks, study length 52 weeks): 60.9 mg/kg/day | TD50 (males, site: forestomach, lesion: squamous-cell papilloma, dosed 78 weeks, study length 78 weeks): 56.1 mg/kg/day | TD50 (males, site: forestomach, lesion: squamous-cell papilloma, dosed 90 weeks, study length 102 weeks): 43.5 mg/kg/day | TD50 (males, site: kidney, lesion: renal-cell adenoma, dosed 78 weeks, study length 78 weeks): 56.1 mg/kg/day | TD50 (males, site: kidney, lesion: renal-cell adenoma, dosed 90 weeks, study length 102 weeks): 45.1 mg/kg/day | TD50 (males, site: kidney, lesion: renal-cell carcinoma, dosed 52 weeks, study length 52 weeks): 129 mg/kg/day | TD50 (males, site: kidney, lesion: several types, types named in the paper, dosed 90 weeks, study length 102 weeks): 35 mg/kg/day | TD50 (males, site: liver, lesion: hepatocellular adenoma, dosed 78 weeks, study length 78 weeks): 28.3 mg/kg/day | TD50 (males, site: liver, lesion: hepatocellular carcinoma, dosed 52 weeks, study length 52 weeks): 129 mg/kg/day | TD50 (males, site: liver, lesion: several types, types named in the paper, dosed 52 weeks, study length 52 weeks): 129 mg/kg/day | TD50 (males, site: small intestine, lesion: adenocarcinoma, dosed 52 weeks, study length 52 weeks): 60.9 mg/kg/day | TD50 (males, site: small intestine, lesion: adenocarcinoma, dosed 90 weeks, study length 102 weeks): 79 mg/kg/day | TD50 (males, site: small intestine, lesion: adenoma, dosed 52 weeks, study length 52 weeks): 129 mg/kg/day | TD50 (males, site: small intestine, lesion: several types, types named in the paper, dosed 52 weeks, study length 52 weeks): 38.1 mg/kg/day | TD50 (males, site: tongue, lesion: squamous-cell carcinoma, dosed 78 weeks, study length 78 weeks): 56.1 mg/kg/day
